In US20240207410A1, “STABILIZED LIQUID COMPOSITIONS COMPRISING A LEVODOPA-TYROSINE CONJUGATE AND USES THEREOF” (NeuroDerm, Ltd., priority 2021, published 2024):
Where a SMILES comes first, the peptide text is derived from it. [ ]: non-standard residue; d: D form. Dopa = N[C@@H](Cc1ccc(O)c(O)c1)C(=O)O

Key:
[1] = Long-term stability of 30% LD-Tyrosine/0.75% carbidopa at 2-8° C.; assay type: physicochemical
Protocol: The formulation also included 0.5% ascorbic acid (Asc), 0.5% N-acetyl cysteine (NAC) and 0.3% Tween 80. The formulation was stored at 2-8° C. for the time indicated, and % recovery and % LD-Tyr-DKP formation (an impurity) were tested. Percent recovery remained high over time. The DKP impurity accumulated over time.

red blood cells (RBC) [2] = assay: Blood/plasma ratio, partitioning into red blood cells, rat blood ex vivo; assay type: in vitro ADME
red blood cells (RBC) [3] = assay: Blood/plasma ratio, partitioning into red blood cells, minipig blood ex vivo; assay type: in vitro ADME; settings: for KRBC/PL: 50 ng/mL
[4] = Maximal Tolerated Dose (MTD), bolus SC; assay type: in vivo; settings: in vivo; study MTD Exp 001, Rat/SD, bolus SC, 90, 150, 300, 625 mg/kg
Protocol: (§1) In vivo non-clinical safety studies were conducted in both the rat and minipig. Additionally, an assessment of the local infusion site reaction of LD-Tyr was performed as part of a PK study in domestic pigs.

Rat/SD = assay: Maximal Tolerated Dose (MTD), bolus SC; assay type: in vivo; settings: study MTD Exp 001, Rat/SD, bolus SC, highest dose (625 mg/kg), males
Protocol: as §1

Minipig/Göttingen = assay: Local safety, 24-hour SC infusion; assay type: in vivo
Protocol: as §1

Pig/domestic = assay: Local infusion site reaction as part of a PK study (ND 2-20-102); assay type: in vivo; settings: study ND 2-20-102, 200 mg/mL at 9 mL (1800 mg/day)
Protocol: as §1

[5] = Effect of various additives on stability of a 20% LD-Tyrosine-L-Arginine based formulation; assay type: physicochemical
in vivo = settings: female, pig, sc, analyte LD-Tyr
Protocol: A series of PK studies was completed in domestic pigs using several LD-Tyr formulations, as detailed in Table 26, and dosing regimens, as detailed in Table 27. The PK profile of LD-Tyr as well as the LD resulting therefrom was determined following 18-hour continuous SC infusion to female domestic pigs. Each formulation was administered at one infusion site per animal using a Crono-ND infusion pump (Canè SpA Medical Technology, Rivoli, Italy) connected to an infusion set (Accu-chek®, FlexLink, Roche).
(§2) Blood samples for the determination of LD-Tyr and LD plasma levels were collected from the pigs at the following timepoints: […]

[6] = PK of formulations with varying concentrations of LD-Tyr and CD (Example 16); assay type: in vivo, domestic pig; settings: female, pig, plasma, sc, analyte LD-Tyr, 18-hour continuous SC infusion
Protocol: A series of PK and local site reaction studies was completed in domestic pigs using several concentrations LD-Tyr formulations comprising varying amounts of CD, as detailed in Table 37, and dosing regimens, as detailed in Table 38. The PK profile of LD-Tyr, as well as the LD resulting therefrom, was determined following 18-hour continuous SC infusion to female domestic pigs. Each formulation was administered at one infusion site per animal using a Crono-ND infusion pump (Canè SpA Medical Technology, Rivoli, Italy) connected to an infusion set (Accu-chek®, FlexLink, Roche).
as §2

[7] = PK following bolus and 2-hr continuous SC administration of 30% LD-Tyr (Example 18); assay type: in vivo, domestic pig; settings: pig; for AUC(0-t) / Cmax / Tmax: female, plasma, sc, analyte LD-Tyr, 30/1 % w/v, bolus and 2-hr continuous SC administration
Protocol: A series of PK and local-tox studies was completed in domestic pigs using several concentrations LD-Tyr formulations comprising varying amounts of CD, as detailed in Table 42, and dosing regimens, as detailed in Table 43. […] Each formulation was administered at one infusion site per animal using a Crono-ND infusion pump (Canè SpA Medical Technology, Rivoli, Italy) connected to an infusion set (Accu-chek®, FlexLink, Roche).
Blood samples for the determination of LD-Tyr and LD plasma levels were collected from the pigs at the following timepoints:
0 (pre-dose), 10 min (end of bolus), 15 min, 30 min, 45 min, 60 min, 75 min, 90 min, 120 min and 240 min following the beginning of the bolus administration.

[8] = PK of LD following 18-hr SC administration of LD-Tyr in a formulation comprising ethanol (Example 22); assay type: in vivo, domestic pig; settings: for AUC(0-t) / Cmax / Tmax: pig, plasma, analyte LD-Tyr, 18-hr continuous SC, formulation comprising ethanol
Protocol: The objective of this study is to determine the pharmacokinetics (PK) of LD-Tyr following an 18-hr continuous subcutaneous (SC) administration in domestic pigs of a formulation comprising 30& LD-Tyr and ethanol. Table 53 provides the LD-Tyr formulation tested in this study.
Animals were dosed with 2700 or 5400 mg of LD-Tyr in the formulation of Table 53 in an 18-hr continuous subcutaneous administration in an infusion volume of 9 or 18 ml (9 mL×2 sites).

[9] = 2640 mg/day, LD-Tyr/CD 44/1 % w/v, daily dose 2640/60 mg, n = 4
[10] = 2700 mg/day, LD-Tyr/CD 30/0.5 % w/v, daily dose 2700/45 mg, n = 5
[11] = 2700 mg/day, LD-Tyr/CD 30/[…] w/v, daily dose 2700/135 mg, n = 5
[12] = bolus volume 0.7 mL, bolus dose 210/7 mg, daily dose 510/17 mg
[13] = bolus volume 1.2 mL, bolus dose 360/12 mg, daily dose 660/22 mg
[14] = bolus volume 1.7 mL, bolus dose 510/17 mg, daily dose 810/27 mg
[15] = 2700 mg, LD-Tyr/CD daily dose 2700/117 mg, n = 5
[16] = 5400 mg, LD-Tyr/CD daily dose 5400/234 mg, n = 3

N[C@@H](Cc1ccc(O)c(O)c1)C(=O)N[C@@H](Cc1ccc(O)cc1)C(=O)O [LD-Tyr, levodopa-tyrosine (LD-Tyr) conjugate of the formula (II)] (H-[Dopa]-Tyr-OH)
% DKP ([1]; 1 month): 1.88 % area | mg/mL (concentration in formulation) ([1]; 1 month): 295.74 mg/mL | % DKP ([1]; 1 week): 0.99 % area | mg/mL (concentration in formulation) ([1]; 1 week): 294.13 mg/mL | % DKP ([1]; 2 months): 2.60 % area | mg/mL (concentration in formulation) ([1]; 2 months): 302.47 mg/mL | % DKP ([1]; 2 weeks): 1.19 % area | mg/mL (concentration in formulation) ([1]; 2 weeks): 304.25 mg/mL | % DKP ([1]; 3 months): 4.04 % area | mg/mL (concentration in formulation) ([1]; 3 months): 296.57 mg/mL | % DKP ([1]; t = 0): 0.86 % area | mg/mL (concentration in formulation) ([1]; t = 0): 297.62 mg/mL | KRBC/PL versus time of incubation (red blood cells (RBC) [2]; rat blood): increased with the time of incubation | RBC binding (red blood cells (RBC) [2]; rat blood): limited RBC binding | partition coefficient between RBC and plasma (KRBC/PL) (red blood cells (RBC) [2]; rat blood, 50, 150 and 2500 ng/mL): below five | RBC binding (red blood cells (RBC) [3]; minipig blood): limited RBC binding | KRBC/PL (red blood cells (RBC) [3]; minipig blood, after 30 minutes (declined)): 0.0 | KRBC/PL (red blood cells (RBC) [3]; minipig blood, at 15 and 30 minutes): 1 | partition coefficient between RBC and plasma (KRBC/PL) (red blood cells (RBC) [3]; minipig blood, 50, 150 and 2500 ng/mL): below five | KRBC/PL versus time of incubation (red blood cells (RBC) [3]; minipig blood, two highest concentrations (150 and 2500 ng/mL)): increased with the time of incubation | MTD [4]: 300 mg/kg | Mortality (Rat/SD): Mortality (1/4 males) | subchronic/chronic inflammation in the subcutis (Minipig/Göttingen; study 0NMR6, 120 mg/mL at 4.5 mL (540 mg/day)): minimal to mild | tolerability (local effect, cutaneous ulcers) (Minipig/Göttingen; study 0NMR6, 24-hour SC infusion, 120 mg/mL at 4.5 mL (540 mg/day)): well tolerated with no | chronic inflammation in the subcutis (Minipig/Göttingen; study 0NMR10, 130 mg/mL at 6 mL (780 mg/day)): minimal to moderate | tolerability (local effect, cutaneous ulcers) (Minipig/Göttingen; study 0NMR10, 24-hour SC infusion, 130 mg/mL at 6 mL (780 mg/day)): well tolerated with no | tolerability (local effect, cutaneous ulcers) (Minipig/Göttingen; study E0515, 24-hour SC infusion, 440, 370, 300, and 250 mg/mL (2640, 2775, 2700, and 2250 mg/day)): well tolerated with no | subacute inflammation in the subcutis (Pig/domestic): minimal to mild | solubility of the LD-Tyr (rank order of cosolvents) [5]: DMA>Ethanol>PEG 300 | Tmax (in vivo): 10.4 h | AUC(0-t) [6, 9]: 8.13 µg·h/mL | Cmax [6, 9]: 0.738 µg/mL | Tmax [6, 9]: 11.6 h | AUC(0-t) [6, 10]: 5.45 µg·h/mL | Cmax [6, 10]: 0.453 µg/mL | Tmax [6, 10]: 8.8 h | AUC(0-t) [6, 11]: 13.5 µg·h/mL | Cmax [6, 11]: 0.986 µg/mL | Tmax [6, 11]: 12.4 h | AUC(0-t) [7, 12]: 1.18 µg·h/mL | Cmax [7, 12]: 0.573 µg/mL | Tmax [7, 12]: 1.3 h | AUC(0-t) [7, 13]: 1.63 µg·h/mL | Cmax [7, 13]: 0.933 µg/mL | Tmax [7, 13]: 0.9 h | AUC(0-t) [7, 14]: 2.43 µg·h/mL | Cmax [7, 14]: 1.35 µg/mL | Tmax [7, 14]: 1.2 h | systemic exposure to LD versus bolus injection volume ([7]; in vivo): dose-proportional increase | dose proportionality ([8]; 2700 and 5400 mg, 18-hr continuous SC administration): dose proportionality | AUC(0-t) [8, 15]: 8.21 ± 4.12 µg·h/mL | Cmax [8, 15]: 0.707 ± 0.283 µg/mL | Tmax [8, 15]: 14 h | AUC(0-t) [8, 16]: 21.2 ± 8.57 µg·h/mL | Cmax [8, 16]: 1.61 ± 0.901 µg/mL | Tmax [8, 16]: 14 h
